According to paper PMC5507300, “Antibacterial small molecules targeting the conserved TOPRIM domain of DNA gyrase” (PLoS ONE, 2017):
Values after ≈ are worked out from the molar mass of the structure shown. “Also recorded” adds a separate entry of the source.

Columns and labels:
E. coli topoisomerase IV = biological target: T1, E. coli topoisomerase IV (Escherichia coli, UniProt P20083); assay: E. coli topoisomerase IV decatenation reaction; type: biochemical; conditions: maximum achievable concentration (200 μM), kDNA decatenation
T1 construct: purchased TopoGEN, Inc
T1 sequence (P20083 whole entry): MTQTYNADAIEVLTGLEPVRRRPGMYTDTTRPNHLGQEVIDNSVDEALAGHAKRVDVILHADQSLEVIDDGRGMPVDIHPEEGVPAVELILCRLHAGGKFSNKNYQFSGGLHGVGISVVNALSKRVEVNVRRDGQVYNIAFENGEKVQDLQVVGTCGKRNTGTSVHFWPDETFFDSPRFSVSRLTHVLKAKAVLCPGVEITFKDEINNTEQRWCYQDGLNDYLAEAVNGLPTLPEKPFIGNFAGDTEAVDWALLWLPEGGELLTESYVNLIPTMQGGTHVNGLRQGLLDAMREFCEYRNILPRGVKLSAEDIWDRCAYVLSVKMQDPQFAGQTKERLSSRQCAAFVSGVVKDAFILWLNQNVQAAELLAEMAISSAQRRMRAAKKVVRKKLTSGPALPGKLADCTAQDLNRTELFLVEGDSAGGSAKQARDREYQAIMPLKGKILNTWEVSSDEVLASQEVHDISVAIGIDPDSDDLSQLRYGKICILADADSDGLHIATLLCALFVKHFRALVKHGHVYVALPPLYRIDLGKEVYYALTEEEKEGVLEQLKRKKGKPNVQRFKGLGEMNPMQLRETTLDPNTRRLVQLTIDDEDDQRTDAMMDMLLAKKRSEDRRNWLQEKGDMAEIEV
T1 sequence (P0AFI2 whole entry, further chain): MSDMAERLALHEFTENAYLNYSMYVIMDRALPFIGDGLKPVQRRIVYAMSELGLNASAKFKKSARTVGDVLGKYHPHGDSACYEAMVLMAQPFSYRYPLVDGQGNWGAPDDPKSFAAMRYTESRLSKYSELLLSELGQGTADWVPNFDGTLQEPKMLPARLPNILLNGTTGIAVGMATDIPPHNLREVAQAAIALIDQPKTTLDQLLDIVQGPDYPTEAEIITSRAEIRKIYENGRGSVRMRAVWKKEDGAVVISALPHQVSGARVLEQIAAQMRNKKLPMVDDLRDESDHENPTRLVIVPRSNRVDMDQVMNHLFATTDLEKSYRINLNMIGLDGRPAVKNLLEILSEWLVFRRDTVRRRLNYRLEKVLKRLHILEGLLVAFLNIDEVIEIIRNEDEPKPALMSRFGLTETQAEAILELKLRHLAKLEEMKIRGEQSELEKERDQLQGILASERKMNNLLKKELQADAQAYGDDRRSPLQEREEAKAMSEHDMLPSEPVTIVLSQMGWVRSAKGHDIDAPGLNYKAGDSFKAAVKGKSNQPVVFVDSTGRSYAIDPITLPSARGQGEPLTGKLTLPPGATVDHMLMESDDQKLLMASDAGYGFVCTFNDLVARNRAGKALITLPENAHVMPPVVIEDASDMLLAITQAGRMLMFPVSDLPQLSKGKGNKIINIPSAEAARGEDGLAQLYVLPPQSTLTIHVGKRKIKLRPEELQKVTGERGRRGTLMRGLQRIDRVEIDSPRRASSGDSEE

S. aureus DNA gyrase = biological target: T2, S. aureus DNA gyrase (Staphylococcus aureus, UniProt P0A0K8); assay: S. aureus DNA gyrase supercoiling reaction; type: biochemical; conditions: maximum achievable concentration (200 μM), pHOT-1 supercoiling
T2 construct: purchased TopoGEN, Inc
T2 sequence (P0A0K8 whole entry): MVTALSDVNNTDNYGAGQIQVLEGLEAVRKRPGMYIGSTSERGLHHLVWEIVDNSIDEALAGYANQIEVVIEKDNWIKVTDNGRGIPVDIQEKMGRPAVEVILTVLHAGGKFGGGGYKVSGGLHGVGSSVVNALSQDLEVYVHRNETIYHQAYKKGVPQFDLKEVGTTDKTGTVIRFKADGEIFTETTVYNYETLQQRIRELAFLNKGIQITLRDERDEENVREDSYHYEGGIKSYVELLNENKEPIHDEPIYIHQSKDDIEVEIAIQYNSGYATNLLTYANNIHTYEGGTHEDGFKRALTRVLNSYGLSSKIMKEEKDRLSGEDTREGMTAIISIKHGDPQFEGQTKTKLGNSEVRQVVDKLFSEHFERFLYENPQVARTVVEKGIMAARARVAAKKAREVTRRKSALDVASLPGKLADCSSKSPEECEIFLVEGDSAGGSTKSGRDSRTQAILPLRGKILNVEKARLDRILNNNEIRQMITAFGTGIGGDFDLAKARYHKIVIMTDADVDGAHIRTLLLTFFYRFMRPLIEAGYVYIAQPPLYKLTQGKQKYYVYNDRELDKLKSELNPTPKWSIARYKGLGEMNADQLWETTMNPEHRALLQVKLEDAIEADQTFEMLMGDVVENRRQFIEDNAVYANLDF
T2 sequence (P20831 whole entry, further chain): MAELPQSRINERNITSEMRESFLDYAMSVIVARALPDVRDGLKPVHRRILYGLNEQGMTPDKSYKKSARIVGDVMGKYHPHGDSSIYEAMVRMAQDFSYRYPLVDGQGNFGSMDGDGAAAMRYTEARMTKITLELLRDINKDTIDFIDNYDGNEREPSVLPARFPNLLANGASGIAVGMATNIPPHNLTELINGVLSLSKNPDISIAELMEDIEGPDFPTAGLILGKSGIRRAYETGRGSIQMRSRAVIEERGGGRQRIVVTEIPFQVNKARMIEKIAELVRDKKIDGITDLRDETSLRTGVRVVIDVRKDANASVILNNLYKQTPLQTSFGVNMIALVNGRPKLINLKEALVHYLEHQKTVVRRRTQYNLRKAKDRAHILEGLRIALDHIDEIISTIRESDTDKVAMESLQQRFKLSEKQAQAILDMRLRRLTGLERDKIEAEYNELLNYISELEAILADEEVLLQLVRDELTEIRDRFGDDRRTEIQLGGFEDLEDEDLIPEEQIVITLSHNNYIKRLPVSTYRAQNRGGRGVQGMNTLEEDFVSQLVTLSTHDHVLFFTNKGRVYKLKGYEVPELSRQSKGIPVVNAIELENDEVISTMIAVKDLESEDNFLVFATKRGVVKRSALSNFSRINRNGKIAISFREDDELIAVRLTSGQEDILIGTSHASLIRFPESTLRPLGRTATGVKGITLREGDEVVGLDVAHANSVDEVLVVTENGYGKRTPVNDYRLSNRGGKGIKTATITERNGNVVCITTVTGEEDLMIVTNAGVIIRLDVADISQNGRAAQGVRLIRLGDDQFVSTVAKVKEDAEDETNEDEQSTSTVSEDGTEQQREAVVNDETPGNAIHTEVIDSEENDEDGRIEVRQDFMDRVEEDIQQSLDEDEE

E. coli HS151 = assay: In vitro time-dependent bactericidal study; type: cell-based
Description: A culture of E. coli HS151 in CAMH broth was grown overnight (18 hrs.) at 37°C, diluted 1:10,000 in 200 mL of fresh CAMH broth and further incubated for 1 hour at 37°C with shaking. A time-zero sample was then removed and 20 mL portions of the remaining culture were transferred into 125 mL vented flasks to which were added MRL-1082 or control antibiotics, at the indicated concentrations. These flasks were then incubated at 37°C with shaking (70 rpm). Samples were withdrawn at the indicated times, plated on blood agar (trypticase soy agar with 5% sheep blood, Becton-Dickinson) and, following overnight growth at 37°C, colonies were counted to determine CFU/mL.

E. coli DNA gyrase = biological target: T3, E. coli DNA gyrase (Escherichia coli, UniProt P0AES6); assay: Agarose gel DNA gyrase supercoiling assay, E. coli; type: biochemical
T3 construct: purchased New England Biolabs, Beverly, MA
Description: Conditions to measure the supercoiling of a relaxed, closed-circular plasmid substrate and cleavage complex stabilization in agarose gels were adapted from the literature and carried out as described below. Plasmid supercoiling reactions were assembled by combining 0.4 μL compound (in 100% DMSO), 12.5 μL H2O, 4 μL 5Xbuffer, 0.4 μL relaxed pUC19 DNA substrate (0.5 μg), […] dilute DNA gyrase (buffer, substrate, and enzyme from New England Biolabs, Beverly, MA). Alternatively the substrate pHOT-1 (TopoGEN, Buena Vista, CO) was used as noted (the substrate from New England Biolabs has been discontinued). P. aeruginosa DNA gyrase was supplied by Inspiralis, Norwich, UK. Reactions were allowed to proceed for 30 min. at 37°C after which 5 μL of stop buffer (5% sarkosyl, 25% glycerol, 1X Blue Juice [Invitrogen, Carlsbad, CA]) were added. Reactions were then extracted with 20 μL chloroform/isoamylOH (24:1) and a portion of the aqueous phase was loaded into a well in a 1% agarose/Tris-borate EDTA gel. Electrophoresis was conducted at 35 VDC until the loading dye migrated about 6.5 cm down the gel. DNA in the gel was then stained in 0.5 μg/mL ethidium bromide in water for 30 min. and rinsed (3X) in H2O. The gel was illuminated with UV light, photographed, and DNA quantitated with an Alpha Imager and accompanying software (ProteinSimple, San Jose, CA).

[1] = test system: DNA synthesis in E. coli JL553; assay: Macromolecule synthesis labeling; type: cell-based; conditions: E. coli JL553, 25 min exposure, labeled precursor incorporation
Description: Macromolecule synthesis profiling was conducted as described by Montgomery, et al. with minor modifications. E. coli strain JL553 (tolC, lysE) was used to measure inhibition of DNA, RNA, protein, peptidoglycan and phospholipid biosynthesis while E. coli MB5500 (lpxC [envA1], galE; Merck & Co., Inc., Kenilworth, NJ, USA, strain collection) was used to measure inhibition of lipopolysaccharide biosynthesis. Radioisotope labeled precursors were used at the following final concentrations [2-^14C]-thymidine (2.5 μCi/mL), [^14C(U)]-uridine (0.5 μCi/mL), L-[4, 5-^3H]-leucine (5 μCi/mL), [2-^3H]-glycerol (2 μCi/mL), [^3H]-diaminopimelic acid (3 μCi/mL), D-[1-^14C]-galactose (0.5 μCi/mL). Compound concentrations (3-fold serial dilutions) were chosen to place the minimum inhibitory concentration (see below) near the center of the dose range. Labeled cultures were incubated with compound for 25 min; stopped with trichloroacetic acid, filtered and incorporation was measured as described. Percent inhibition of incorporation was calculated relative to an untreated control culture for each labeled precursor and plotted with GraphPad Prism.

[2] = test system: E. coli BW25113 ΔtolC/ΔyacG; assay: Broth microdilution MIC, E. coli BW25113 ΔtolC/ΔyacG; type: cell-based
Description: Compound doubling dilutions were prepared in 100% DMSO (Sigma Aldrich) and 2 μL of each dilution was transferred to a 96-well plate with lid (Thermo Scientific). Inoculum for all MIC testing was prepared using the BBL Prompt Inoculation System (Becton Dickinson, Franklin Lakes, NJ USA) as described by the manufacturer to produce a suspension of cells at approximately 1.5 x 10^8 colony forming units (CFU)/mL [34–36] and a further dilution (1:1000) was made into cation adjusted Mueller-Hinton broth (CAMH broth, Becton-Dickinson). One hundred μL of this inoculum were then transferred to each well of the 96-well plate containing diluted compound (above). Plates were covered and incubated overnight (18 hrs.) at 37°C.
The yacG deletion allele from the Keio collection was amplified by PCR (primers: […] and […]) and moved to BW25113 ΔtolC as described below. The E. coli strain BW25113 ΔtolC containing pKD46 [25] was used to inoculate SOB (Invitrogen)/0.2% w/v arabinose (Sigma Aldrich)/ampicillin (100 μg/mL) and grown overnight at 30°C. The overnight culture was then diluted 1/40 into 20 mL fresh SOB/0.2% w/v arabinose/ampicillin (100 μg/mL) and grown at 30°C while shaking for ~3 hrs until OD600 = 0.5. Cells were pelleted by centrifugation at 4000 rpm for 10 min, washed with 40 mL ice cold sterile, distilled H2O, then 3 x 1 mL ice cold 10% glycerol followed by centrifugation at 5000 g for 3 minutes. The pellet was resuspended in 100 μL of 10% glycerol (1/200 of starting culture). For transformation, 5 μL of gel purified PCR product was added to 50 μL cells, mixed, and immediately electroporated in a 0.2 cm gap cuvette at 2.5kV, 25 μF, 200 Ω (BioRad, Hercules, CA USA). Electroporated cells were recovered in 1 mL SOC (Invitrogen)/0.2% arabinose at 37°C for 2 hours with shaking. Cells in amounts of 50 and 950 μL were then plated on LB agar supplemented with kanamycin (25 μg/mL) and incubated overnight at 37°C. Correct gene replacements were verified by PCR.

## Cn1ncc2cc(-c3nnnn3C3CCN(C(=O)Nc4ccc(Cl)c(Cl)c4)CC3)ccc21 [MRL-1082]
E. coli topoisomerase IV
  activity against E. coli topoisomerase IV: does not inhibit
S. aureus DNA gyrase
  activity against S. aureus DNA gyrase: does not inhibit
E. coli HS151; E. coli HS151, 2XMIC or greater, following 2–4 hours of treatment
  reduction in culture viability: greater than 3 log
E. coli HS151; E. coli HS151, 4-8XMIC, after 8 hours
  culture viability, below lower limit of quantitation: < 20 CFU/mL
E. coli HS151; Escherichia coli, HS151, 24 h, read-out: MIC of isolates from treated culture
  MIC: 0.0625 µg/mL

## COc1ccc(C)cc1NC(=O)N1CCC(n2nncc2-c2ccc3c(cnn3C)c2)CC1 [MRL-770]
E. coli DNA gyrase; S1 Fig, pHOT-1 substrate
  inhibition of E. coli DNA gyrase (gel): limited; also recorded: dose-dependent inhibition of enzyme activity
[1]
  inhibition of macromolecule synthesis: selective and reproducible inhibition of DNA synthesis

## Cn1ncc2cc(-c3cnnn3C3CCN(C(=O)Nc4cc(Cl)cc(Cl)c4)CC3)ccc21 [MRL-423]
[2]; E. coli BW25113 (ΔtolC) ΔyacG
  effect of deletion of yacG on potency: does not affect the potency
[2]; Escherichia coli, BW25113
  MIC: 0.25 µg/mL (≈ 0.532 µM)
E. coli DNA gyrase
  IC50: ~7.5 µM
